As usually defined, the EC50 is the concentration giving half of the maximal effect.

Assay [1] addresses T1, Pin1_72/14-3-3γ (Homo sapiens, UniProt P61981+Q13526).
T1 construct: the full length 14-3-3γ was dialysis against 25 mM HEPES pH 7.5; made in house; host or cells: E. coli BL21(DE3), pPROEX HTb
Description: Fluorescence anisotropy protein titration, Pin1_72/14-3-3γ at constant compound. Type of assay: binding. The settings on record: based on internal DMSO control and 100 μM fragment. From the text: Inspired by the binding poses of 3 and 9 we combined their structural features to improve stabilization. […] In case of complex stabilization, a left shift of apparent KD values is expected, here described as stabilization factors (SF).
(§1) Fluorescence Anisotropy (FA) Assays.

Assay [2] has as its target T2, Pin1_72/14-3-3σΔC (Homo sapiens, UniProt P31947).
T2 construct: The 14-3-3σ protein was C-terminally truncated (ΔC) after T231 to enhance crystallization; His6 (cleaved yes); made in house; host or cells: E. coli BL21(DE3), pPROEX HTb
The experiment in a line: X-ray crystal soaking. The settings on record: 10 mM fragment soak. It is filed as binding. The protocol:
X-Ray Crystallography. […] B-Raf/14-3-3σΔC and Abl1/14-3-3σΔC crystals were grown in a sitting drop set up. […] All crystals were directly flash-frozen in liquid nitrogen and data acquisition took place at either the P11 beamline of […] campus, Hamburg, Germany) or i-03/i-24 beamline of the diamond light source (Oxford, UK) or in-house. Fragment screening was performed by crystal soaking, whereby a final concentration of 10 mM fragment was added to fully grown crystals (final DMSO ≤1%). The fragment/crystal mixtures incubated for seven days prior to data acquisition. The diffraction data were analyzed with […] pipeline and MolRep was used for phasing. For model refinement Coot, Refmac5 and phenix.refine were utilized in iterative cycles. The elbow software of the phenix suite was used for ligand preparation based on fragment SMILES. Figures were generated with PyMOL© (V2.0.6, Schrodinger LLC).

Assay [3] concerns the target T3, 14-3-3σ(C42)/ERα-pp (Homo sapiens, UniProt P31947, C38N/N42C).
T3 construct: with a truncated C-terminus after T231; His6 (N, cleaved yes); made in house; host or cells: E. coli NiCo21 (DE3), pPROEX HTb
The experiment in a line: Fluorescence anisotropy, fragment titration to 14-3-3σ(C42) and fluorescein-ERα-pp. The settings on record: 1 μM 14-3-3σ(C42), 100 nM fluorescein-ERα-pp; read-out: EC50 (anisotropy, stabilization of ERα-pp binding). Here is the method:
We observed the same trend when we titrated the fragments into a mixture of 1 μM 14-3-3σ(C42) and 100 nM fluorescein-ERα-pp, conditions under which half of the peptide was initially bound. […] The maximum effect was instantaneous at a saturating concentration (100 μM).
Fluorescence Anisotropy. […] Final DMSO concentration in the assay was always 1%. Dilution series of 14-3-3 protein or fragments were made in black, round-bottom 384-microwell plates (Corning) in a final sample volume of 10 μL in triplicates. Fluorescence anisotropy measurements were performed directly and after overnight incubation at room-temperature, using a Tecan Infinite F500 plate reader (filter set λex: 485±20 nm, λem: 535±25 nm). Data reported are at endpoint. EC50 values were obtained from fitting the data with a four-parameter logistic model (4PL) in GraphPad Prism 6.

Assay [4] concerns the target T4, ER (Homo sapiens, UniProt P31947). The experiment in a line: MS (KD,app), ER. Type of assay: binding. The settings on record: 24 hr incubation.
The target in assay [5] is T4, ER. The experiment in a line: Fp (EC50)/fold-stabilization of peptide, ER. It is filed as binding. The settings on record: 24 hr incubation.
Assay [6] has as its target T5, 14-3-3/ERα complex (Homo sapiens, UniProt P61981).
T5 construct: the full length 14-3-3γ was dialysis against 25 mM HEPES pH 7.5; made in house; host or cells: E. coli BL21(DE3), pPROEX HTb
T5 sequence (P61981 1-247): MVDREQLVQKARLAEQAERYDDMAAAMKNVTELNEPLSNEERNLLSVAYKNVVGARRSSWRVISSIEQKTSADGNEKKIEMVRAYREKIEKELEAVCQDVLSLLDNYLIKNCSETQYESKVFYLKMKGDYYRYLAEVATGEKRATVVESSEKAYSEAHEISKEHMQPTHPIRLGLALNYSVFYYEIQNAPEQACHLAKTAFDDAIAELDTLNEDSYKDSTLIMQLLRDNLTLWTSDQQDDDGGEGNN
The experiment in a line: Selectivity screening FA, ERα peptide. It is filed as binding.
Source text: Selectivity screening of covalent fragments. Drugging the hub protein 14-3-3 raises the challenge of selectivity. We hypothesized that the high level of cooperative behavior for 14-3-3/Pin1_72/28 complex is a function of the unique functionality and topology of the interface, specifically the +1 and +3 amino acid of Pin1_72 with the covalent fragment. We further rationalized that this cooperativity would likely translate to high selectivity. To test this hypothesis, fragments 13, 27 and 28 were screened at a single fragment concentration (100 μM) against a panel of 13 peptides as diverse representatives of 14-3-3 client proteins, differing in size and hydrophobicity of the +1 amino acid (FIG. 22A).
as §1

Assay [7] concerns the target T6, 14-3-3/Pin1_72 complex (Homo sapiens, UniProt P61981).
T6 construct: the full length 14-3-3γ was dialysis against 25 mM HEPES pH 7.5; made in house; host or cells: E. coli BL21(DE3), pPROEX HTb
Description: Cooperativity analysis, 14-3-3 titrations at varied constant fragment concentration. Type of assay: binding. Conditions: 8 μM compound. From the text: Cooperativity in ternary complex formation. In contrast to PPI inhibition, where affinity to one of the protein pockets is the driving force for drug development, design of molecular glues is driven by cooperative ternary complex formation. Both CC50 and SF values are concentration dependent values and might differ based on assay design. […] Cooperative complex formation is often accompanied by structural changes of the interface of a complex which translates to increased stability of the ternary com-plex. In order to assess cooperativity of the ternary complex, fragments 13, 23, 27 and 28 were selected for cooper-activity analysis. The α-factor of the fragments were determined using 14-3-3 titrations in the presence of varied, but constant concentration of fragment in a dose-dependent manner. […] Further, the interval of change in stabilization further describes the systems cooperative behaviour.
However, at higher concentration regimes significant assay interference was observed, probably due to compound aggregation. Fragments 23, 27 and 28 all reached saturation or approached saturation enabling accurate determination of α-factor. […] KD remains constant also at higher concentrations of FC-A, indicating non-specific effects.

Assay [8] has as its target 14-3-3/NFκBp65 peptide (Homo sapiens, UniProt P31947). Description: Fluorescence polarization assay, FITC-NFκBp65 peptide binding to 14-3-3 with increasing fragment. The text has this:
As the primary assays to test for binding and activity we used X-ray protein crystallography (crystal soaking) and a fluorescence polarization assay (FP) employing a fluorophore-labelled (FITC) version of the NFκBp65 peptide. After some rounds of analogues testing, we were able to identify the molecules' electrochemical properties that are enabling the lysine attach to the carbonyl feature of the fragment. […] This reflects a principal feature of orthosteric PPI stabilization which is based on the direct, simultaneous physical interaction of the stabilizer with both protein partners.
In addition to the hydrophobic interaction of the primary phenyl ring of TCF521-129 with the side chain of Ile46, the 2,6-dimethylmorpholine substituent sits on top of this side chain and additionally contacts with one of its methyl groups Pro47 and Gly48. The opposite methyl is engaging a hydrophobic patch in the ‘roof’ of the 14-3-3 groove comprised of Leu218, Ile219, and […] (FIG. 9B, upper row). […] The potential PPI stabilizing activity of both fragments were tested in a fluorescence polarization assay measuring the binding of a fluorescently-labelled (FITC) NFκBp65 peptide to 14-3-3 in the presence of an increasing concentration of the fragment.

T2 sequence (P31947 1-231 limits assumed, stated change not applied, other chains not shown): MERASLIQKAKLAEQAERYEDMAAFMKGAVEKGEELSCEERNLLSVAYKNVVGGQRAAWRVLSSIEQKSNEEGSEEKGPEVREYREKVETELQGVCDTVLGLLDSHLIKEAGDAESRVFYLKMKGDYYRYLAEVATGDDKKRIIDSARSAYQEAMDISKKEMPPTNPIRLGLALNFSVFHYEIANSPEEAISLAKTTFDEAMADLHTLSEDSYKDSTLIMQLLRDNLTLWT
T4 sequence (P31947 whole entry, other chains not shown): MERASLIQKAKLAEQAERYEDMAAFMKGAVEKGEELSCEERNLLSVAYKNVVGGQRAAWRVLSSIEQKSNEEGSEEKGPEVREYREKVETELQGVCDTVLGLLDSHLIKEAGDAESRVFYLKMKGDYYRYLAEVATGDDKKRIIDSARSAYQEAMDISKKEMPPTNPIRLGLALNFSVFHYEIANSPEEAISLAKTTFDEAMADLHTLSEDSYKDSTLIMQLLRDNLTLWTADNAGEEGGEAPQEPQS
Chain of 14-3-3/NFκBp65 peptide (P31947 whole entry, other chains not shown, the tested form may be a part): as the sequence (P31947 whole entry, other chains not shown) above
T3 sequence (P31947 1-231 C38N/N42C, other chains not shown): as the sequence (P31947 1-231 limits assumed, stated change not applied, other chains not shown) above, with C38N, N42C counted along it

As for `O=Cc1ccc(-n2ccnc2-c2ccc(Br)cc2)cc1Br` [compound 24, 2-bromo-4-(2-(4-bromophenyl)-1H-imidazol-1-yl)benzaldehyde], the “SF (fold stabilization)” value in assay [1] turned out to be 3.32. Moreover, in assay [2], the “PDB: electron density due to compound binding” value (shortened to “PDB: electron density due”) is listed as “n. bind”. For `C=CC(C)(C)OC[C@H]1O[C@H](O[C@@H]2C3=C([C@H](C)COC(C)=O)C[C@H](O)[C@]3(C)/C=C3/[C@@H](COC)CC[C@H]3[C@@H](C)[C@H]2O)[C@H](O)[C@@H](OC(C)=O)[C@@H]1O` [FC-A, fusicoccane-A], the EC50 in assay [3] worked out at 0.216 µM. As to `CC(C)(Oc1ccc(Cl)cc1)C(=O)N1CCC(CNC(=O)CCl)CC1`, the Kd in assay [4] stood at 84.3 µM. Also, in assay [5], the response was half-maximal at 38.9 µM (EC50). As for `C=CC(C)(C)OC[C@H]1O[C@H](O[C@@H]2C3=C([C@H](C)COC(C)=O)C[C@H](O)[C@]3(C)/C=C3/[C@@H](COC)CC[C@H]3[C@@H](C)[C@H]2O)[C@H](O)[C@@H](OC(C)=O)[C@@H]1O` [FCA, Fusicoccin A, reference compound], in assay [6], the “stabilization of the 14-3-3/ERα complex” value was 110 fold. In addition, the “SF 8 μM” value in assay [7] was about 10.

`CC(=O)N1CCN(S(=O)(=O)c2ccc(C=O)cc2)CC1` [TCF521-123, 4-[(4-acetylpiperazin-1-yl)sulfonyl]benzaldehyde]: the PPI stabilizing activity result in assay [8] (highest concentrations tested) was “only a very weak”. On to `O=Cc1ccc(-n2ccnc2-c2ccccc2)c(OC(F)(F)F)c1` [compound 20, 4-(2-phenyl-1H-imidazol-1-yl)-3-(trifluoromethoxy)benzaldehyde], for which the “PDB: electron density due” value in assay [2] is given as “n. bind”. `CC(C)(Oc1ccc(Cl)cc1)C(=O)N1CCC(CCNC(=O)CCl)CC1` returned a Kd in assay [4] of 33.7 µM. This compound registered an EC50 in assay [5] of 32.7 µM. Turning to `CC1CN(S(=O)(=O)c2ccc(C=O)cc2)CC(C)O1` (stereo not shown) [TCF521-129, 4-[(2,6-dimethylmorpholin-4-yl)sulfonyl]benzaldehyde], in assay [8] (read-out: EC50 (stabilizes interaction of peptide with 14-3-3)), the EC50 turned out to be 370 µM. As for `O=Cc1ccc(-n2ccnc2-c2ccccc2)c(Oc2ccccc2)c1` [compound 21, 3-phenoxy-4-(2-phenyl-1H-imidazol-1-yl)benzaldehyde], the “PDB: electron density due” value in assay [2] is “n. bind”.

The values above are taken from US20230142739A1, “PROTEIN-PROTEIN INTERACTION STABILIZERS” (The Regents of the University of California, priority 2020, published 2023).
